“Also recorded” adds a separate entry of the source. Where two headings read alike, the source gives them in different places.
Experiments:
[1] = in ethanol; cited from earlier work
From the text: RB is a xanthene PS [22] derived from fluorescein (Figure 1a) with interesting photophysical and sonosensitive properties. For example, Nonaka et al. used sonodynamic therapy (SDT) with RB and focused ultra-sound to treat experimental intracranial glioma in rats. […] RB photoactivation can be used for external application on the body, such as wound sealing or ...

[2] = Singlet oxygen production quantum yield; type: physicochemical; conditions: D2O, reference Eosin Y; for ^1O2 quantum yield ΦΔ558: λexc = 558 nm
RB fluorescence lifetime = type: physicochemical; conditions: D2O, λexc = 470 nm
Description: The Ln luminescence lifetime is recorded after excitation at 545 nm for Tb and 313 nm for Gd. The fluorescence lifetime of RB is recorded after excitation at 470 nm ( τf470 ). ^1O2 emission spectra are obtained after excitation at 558 nm (maximum absorption wavelength of RB) but also after excitation at 351 nm for Tb and 273 nm for Gd.
(§1) Absorption spectra were recorded on a UV-3600 UV–visible double beam spectrophotometer (Shimadzu, Marne-La-Vallée, France). Fluorescence spectra were recorded on a Fluorolog FL3-222 spectrofluorimeter (Horiba Jobin Yvon, Palaiseau, France) equipped with a 450 W Xenon lamp and thermostated cell compartment (25 °C), a UV–visible photomultiplier R928 (Hamamatsu Photonics, Hamamatsu, Japan) and an InGaAs infrared detector (DSS-16A020L Electro-Optical System Inc, Phoenixville, PA, USA). The excitation beam was diffracted by a double ruled grating SPEX monochromator (1200 grooves/mm blazed at 330 nm). The emission beam was diffracted by a double ruled grating SPEX monochromator (1200 grooves/mm blazed at 500 nm). Singlet oxygen emission was detected through a double ruled grating SPEX monochromator (600 grooves/mm blazed at 1 µm) and a long-wave pass (780 nm). All spectra were measured in four-face quartz vials.

[3] = Fluorescence quantum yield; type: physicochemical; conditions: D2O, λexc = 558 nm; reference tetraphenylporphyrin
Description: as §1
The fluorescence quantum yield (Φf) is calculated using Equation (6).(6) Φf=Φf0 . If/If0.OD0/OD. (n/n0)^2 where Φf and Φf0, If and If0, OD and OD0, n and n0 are the quantum yields, fluorescence intensities, optical densities, and refractive indices of the sample and reference, respectively.
Tetraphenylporphyrin (TPP) was chosen as the fluorescence reference standard (Φf0 = 0.11, toluene).

NRP-1 [4] = biological target: T1, NRP-1 (Homo sapiens, UniProt O14786); assay: NRP-1 binding, competitive assay; conditions: conjugated via maleimide on AGuIX NPs
Description: The affinity of AGuIX Ln@Mal-K(RB) and AGuIX Ln@Mal-K(RB)DKPPR to NRP-1 was determined as previously described in terms of IC50 in another study.

NRP-1 [5] = biological target: T1, NRP-1; conditions: peptide alone, cited from earlier work
Description: In the nano AGuIX platform tested, firstly, DOTA was chelated with Gd or Tb, and secondly, a targeted peptide recognizing neuropilin 1 (NRP-1) coupled to RB (i.e., K(RB)DKPPR) was conjugated to the surface of AGuIX NPs. […] In K(RB)DKPPR, conjugation via a maleimide function enhanced the affinity constant to the order of nM. Finally, NPs were tested in vitro on U-251 MG cells, derived from a human glioblastoma multiforme, using an anchorage-dependent clonogenic assay. […] An increase in SOSG fluorescence signal was observed confirming ^1O2 production, which was inhibited by the addition of NaN3 in the reaction mixture (Figure 11).

Ln luminescence lifetime = type: physicochemical; conditions: D2O, λexc/λdetection = 273/313 nm
[6] = Hydrodynamic size by TDA-ICP-MS; type: physicochemical; conditions: Table 4, listed as AGuIX Ln@Mal-K(RB)DKPPR (Ln = Gd)
Description: TDA experiments were conducted using a TDA-ICP-MS hyphenation between a Sciex P/ACE MDQ instrument and a 7700 Agilent ICP-MS. Fused silica capillaries with an inner diameter of 75 µm and outer diameter of 375 µm, and a total length of 64 cm, were coated with hydroxypropylcellulose (HPC) using a solution of 0.05 g mL^−1 in water. Detection was carried out by ICP-MS at m/z = 158 and m/z = 159 for Gd and Tb detection, respectively. Samples were hydrodynamically injected (0.3psi for 3 s), then mobilized using Tris 10 mM and NaCl 125 mM at 0.7 psi. Between runs, the capillary was flushed at 5 psi for 5 min with the mobilization medium. All measurements were performed at least in duplicates.
The detected peak was fitted by a sum of Gaussian distributions using Origin 8.5 software, according to Equation (8).(8) St=∑i=12Ai/σi 2πexp−t−t0^2/2σi2 where t0 is the peak residence time, and […] are the area under the curve and the temporal variance associated with each species i, respectively.
Under these experimental conditions, the molecular diffusion coefficient D is given by(9) D=Rc2t0/24σ^2=2kBT/6πηDh where Rc is the capillary radius, kB is the Boltzmann constant, T is the temperature, η is the viscosity, and Dh is the hydrodynamic diameter of the solute.
Therefore, using Equation (9), the hydrodynamic diameters can be calculated from the temporal variances measured from the fitted Taylorgram.

Zeta potential = type: physicochemical; conditions: DLS, Zetasizer Nano-Z, He-Ne 633 nm; pH 7.2 mentioned; listed as AGuIX Ln@Mal-K(RB)DKPPR (Ln = Gd)
Description: The zeta potential (ξ) for each NPs was determined using Zetasizer Nano-Z (Malvern, UK) equipped with a He-Ne laser at 633 nm.

U-251 MG cells = assay: Anchorage-dependent clonogenic assay with X-ray irradiation; type: cell-based, human; conditions: [RB] = 1 µM, 24 h, X-ray 2 Gy (320 kV, 10 mA, 3 Gy/min), clones after 7 days; fraction of untreated non-irradiated cells; mean, triplicates from 3 experiments (n = 9)
[7] = listed as AGuIX Ln@Mal-K(RB)DKPPR (Ln = Gd)

T1 sequence (O14786 22-923): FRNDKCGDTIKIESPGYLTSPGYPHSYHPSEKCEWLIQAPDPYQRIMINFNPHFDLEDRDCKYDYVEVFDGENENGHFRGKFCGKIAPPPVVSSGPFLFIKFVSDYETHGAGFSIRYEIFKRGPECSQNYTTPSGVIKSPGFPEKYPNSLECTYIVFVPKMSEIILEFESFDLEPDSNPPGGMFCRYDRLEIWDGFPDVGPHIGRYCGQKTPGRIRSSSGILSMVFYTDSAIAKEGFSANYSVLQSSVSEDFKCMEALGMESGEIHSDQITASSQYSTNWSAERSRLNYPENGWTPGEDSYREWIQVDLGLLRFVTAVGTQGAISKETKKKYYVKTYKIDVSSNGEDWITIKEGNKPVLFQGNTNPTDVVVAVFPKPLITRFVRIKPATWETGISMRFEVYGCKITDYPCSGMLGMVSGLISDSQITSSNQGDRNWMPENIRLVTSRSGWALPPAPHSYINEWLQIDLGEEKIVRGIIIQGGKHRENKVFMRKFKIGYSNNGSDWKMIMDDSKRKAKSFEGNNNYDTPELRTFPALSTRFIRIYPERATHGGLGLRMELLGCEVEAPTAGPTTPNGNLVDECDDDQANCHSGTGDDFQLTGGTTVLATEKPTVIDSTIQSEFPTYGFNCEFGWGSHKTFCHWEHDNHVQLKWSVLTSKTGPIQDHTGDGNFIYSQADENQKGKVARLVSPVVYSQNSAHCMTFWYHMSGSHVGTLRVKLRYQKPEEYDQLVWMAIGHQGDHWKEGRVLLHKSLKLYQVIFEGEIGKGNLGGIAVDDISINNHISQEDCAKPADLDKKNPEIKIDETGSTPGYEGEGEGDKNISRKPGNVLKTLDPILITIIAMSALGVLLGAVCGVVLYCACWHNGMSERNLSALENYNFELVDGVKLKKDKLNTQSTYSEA

Compound: O=C1OC2(c3cc(I)c(O)c(I)c3Oc3c2cc(I)c(O)c3I)c2c(Cl)c(Cl)c(Cl)c(Cl)c21 [RB, Rose Bengal]
- fluorescence quantum yield (Φf) [1]: 0.11
- singlet oxygen quantum yield (ΦΔ) [1]: 0.68
- ^1O2 quantum yield ΦΔ351(Tb) or ΦΔ273(Gd) ([2]; λexc = 351 nm or 273 nm (not told apart for RB)): 0.00
- ^1O2 quantum yield ΦΔ558 [2]: 0.67
- RB fluorescence lifetime τf470 (RB fluorescence lifetime): 0.63 ns
- Fluorescence quantum yield Φf558 [3]: 0.15

Compound: K(RB)DKPPR [NRP-1-targeting peptide coupled to RB]
- affinity for NRP-1 (NRP-1 [4]): order of nM; also recorded: affinity in the nM range

Compound: KDKPPR [NRP-1-targeting peptide]
- affinity for NRP-1 (NRP-1 [5]; ref 37): affinity of the order of μM
- affinity for NRP-1 (NRP-1 [5]; ref 40): micromolar affinity
- binding affinity for NRP-1 (NRP-1 [5]; ref 41): around 1 μM

Compound: Mal-K(RB)DKPPR [AGuIX Gd@Mal-K(RB)DKPPR, Mal-K(RB)DKPPR conjugated to thiolated AGuIX Gd NPs by thiol-maleimide click chemistry]
- Ln luminescence lifetime τL (Gd) (Ln luminescence lifetime): 345 µs
- ^1O2 quantum yield ΦΔ273(Gd) ([2]; λexc = 273 nm): 0.35
- ^1O2 quantum yield ΦΔ558 [2, 7]: 0.67
- percentage of population P1 [6]: 95%
- percentage of population P2 [6]: 5%
- Size, population P1 ([6]; Tris 10 mM and NaCl 125 mM): 2.9 nm
- Size, population P2 ([6]; Tris 10 mM and NaCl 125 mM): 14.0 nm
- RB fluorescence lifetime τf470 (RB fluorescence lifetime; [7]): 3.8 ns
- Fluorescence quantum yield Φf558 [3]: 0.11
- Zeta potential (ζ) (Zeta potential): −10 mV
- Cell survival (clonogenic capability relative to control) (U-251 MG cells): 0.63
